Results taken from PubChem BioAssay (NCI).
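Where inhibition never reached the appropriate level, the endpoint shown equals the highest concentration tested. Otherwise, values were interpolated linearly from a five-concentration, 48-hour dose response in 96-well plates. Here, GI50 denotes the concentration required for 50% inhibition of growth. The concentration for full growth arrest is given as TGI.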

Assays:
Assay in all cases: NCI anticancer screen, dose series, 48 h
786-0 renal = tested on: 786-0 renal
A498 renal = tested on: A498 renal
A549 NSCLC = tested on: A549 NSCLC
ACHN renal = tested on: ACHN renal
BT-549 breast = tested on: BT-549 breast
CCRF-CEM leukemia = tested on: CCRF-CEM leukemia
COLO 205 colon = tested on: COLO 205 colon
DU-145 prostate = tested on: DU-145 prostate
EKVX NSCLC = tested on: EKVX NSCLC
HCC-2998 colon = tested on: HCC-2998 colon
HCT-116 colon = tested on: HCT-116 colon
HCT-15 colon = tested on: HCT-15 colon
HL-60(TB) leukemia = tested on: HL-60(TB) leukemia
HOP-62 NSCLC = tested on: HOP-62 NSCLC
HOP-92 NSCLC = tested on: HOP-92 NSCLC
HS 578T breast = tested on: HS 578T breast
HT29 colon = tested on: HT29 colon
IGROV1 ovarian = tested on: IGROV1 ovarian
K-562 leukemia = tested on: K-562 leukemia
KM12 colon = tested on: KM12 colon
LOX IMVI melanoma = tested on: LOX IMVI melanoma
M14 melanoma = tested on: M14 melanoma
MALME-3M melanoma = tested on: MALME-3M melanoma
MCF7 breast = tested on: MCF7 breast
MDA-MB-231 breast = tested on: MDA-MB-231 breast
MDA-MB-435 = tested on: MDA-MB-435
MOLT-4 leukemia = tested on: MOLT-4 leukemia
NCI-H226 lung = tested on: NCI-H226 lung
NCI-H23 lung = tested on: NCI-H23 lung

Question: Which results are given for `C=C1C(=O)O[C@H]2[C@H]1CC/C(COC(=O)NCc1c[nH]c3ccccc13)=C\CC[C@@]1(C)O[C@@H]21`?
Answer: GI50 (786-0 renal): 1.78 µM; TGI (786-0 renal): 3.93 µM; GI50 (A498 renal): 11.1 µM; TGI (A498 renal): 23.2 µM; GI50 (A549 NSCLC): 12.5 µM; TGI (A549 NSCLC): 28.6 µM; GI50 (ACHN renal): 1.97 µM; TGI (ACHN renal): 7.86 µM; GI50 (BT-549 breast): 1.98 µM; TGI (BT-549 breast): 6.3 µM; GI50 (CCRF-CEM leukemia): 1.48 µM; TGI (CCRF-CEM leukemia): 8.27 µM; GI50 (COLO 205 colon): 1.81 µM; TGI (COLO 205 colon): 3.58 µM; GI50 (DU-145 prostate): 2.35 µM; TGI (DU-145 prostate): 10.7 µM; GI50 (EKVX NSCLC): 2.23 µM; TGI (EKVX NSCLC): 8.84 µM; GI50 (HCC-2998 colon): 6.41 µM; TGI (HCC-2998 colon): 19 µM; GI50 (HCT-116 colon): 1.53 µM; TGI (HCT-116 colon): 3.3 µM; GI50 (HCT-15 colon): 1.67 µM; TGI (HCT-15 colon): 4.19 µM; GI50 (HL-60(TB) leukemia): 1.54 µM; TGI (HL-60(TB) leukemia): 4.22 µM; GI50 (HOP-62 NSCLC): 11.2 µM; TGI (HOP-62 NSCLC): 23.7 µM; GI50 (HOP-92 NSCLC): 1.51 µM; TGI (HOP-92 NSCLC): 4.31 µM; GI50 (HS 578T breast): 10.3 µM; TGI (HS 578T breast): 43.9 µM; GI50 (HT29 colon): 3.1 µM; TGI (HT29 colon): 9.69 µM; GI50 (IGROV1 ovarian): 1.96 µM; TGI (IGROV1 ovarian): 11.6 µM; GI50 (K-562 leukemia): 1.82 µM; TGI (K-562 leukemia): 12.6 µM; GI50 (KM12 colon): 13.8 µM; TGI (KM12 colon): 30.7 µM; GI50 (LOX IMVI melanoma): 1.4 µM; TGI (LOX IMVI melanoma): 2.87 µM; GI50 (M14 melanoma): 1.91 µM; TGI (M14 melanoma): 5 µM; GI50 (MALME-3M melanoma): 2.02 µM; TGI (MALME-3M melanoma): 5.21 µM; GI50 (MCF7 breast): 1.5 µM; TGI (MCF7 breast): 4.39 µM; GI50 (MDA-MB-231 breast): 1.91 µM; TGI (MDA-MB-231 breast): 4.98 µM; GI50 (MDA-MB-435): 2.57 µM; TGI (MDA-MB-435): 11.8 µM; GI50 (MOLT-4 leukemia): 2.71 µM; TGI (MOLT-4 leukemia): 9.13 µM; GI50 (NCI-H226 lung): 2 µM; TGI (NCI-H226 lung): 5.55 µM; GI50 (NCI-H23 lung): 8.37 µM
